How the values were obtained:
Experiment in all cases: relative viability (nuclei count vs DMSO), 5 days (fraction); higher = more cells survive
[1] = compound: CCC1=CN=CN=C1N2CCN(CC2)CC3=NC4=C(N3)C=C(C=C4)C(F)(F)F + COc1cc2c(Oc3ccc(NC(=O)C4(C(=O)Nc5ccc(F)cc5)CC4)cc3F)ccnc2cc1OCCCN1CCOCC1 [Foretinib] (partner 0.25 µM)
Outline: (§1)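 For relative viability, nuclei counts in treated wells were divided by those in vehicle wells. Lung cancer cell lines had been pin-tool dosed in 1536-well plates the day after seeding and cultured for 5 days, then fixed and stained in one step (final 0.05% Triton X-100, 1% formaldehyde, 1 ug/ml Hoechst) and imaged at 4×. Doses were one drug alone or a fixed anchor-drug dose plus five library-drug doses (not always all listed) in √10 steps, and values are duplicate-plate medians.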

[2] = compound: CCC1=CN=CN=C1N2CCN(CC2)CC3=NC4=C(N3)C=C(C=C4)C(F)(F)F + C[C@]1(O)C[C@@H](c2nc(-c3ccc4ccc(-c5ccccc5)nc4c3)c3c(N)nccn32)C1 [Linsitinib] (partner 1 µM)
Outline: as §1

[3] = compound: CCn1c(-c2nonc2N)nc2cnc(Oc3cccc(NC(=O)c4ccc(OCCN5CCOCC5)cc4)c3)cc21 + O=C(CCCCCCC(=O)Nc1ccccc1)NO [Vorinostat] (partner 1 µM)
Outline: as §1

[4] = compound: CCC1=CN=CN=C1N2CCN(CC2)CC3=NC4=C(N3)C=C(C=C4)C(F)(F)F + Cc1nc(NC(=O)N2CCC[C@H]2C(N)=O)sc1-c1ccnc(C(C)(C)C(F)(F)F)c1 [Alpelisib] (partner 2 µM)
Outline: as §1

UMC-11
relative viability ([1]; first compound 0.04 µM): 0.997
relative viability ([1]; first compound 0.1265 µM): 0.932
relative viability ([1]; first compound 0.4 µM): 1
relative viability ([1]; first compound 1.265 µM): 0.898
relative viability ([1]; first compound 4 µM): 0.96
relative viability ([2]; first compound 0.04 µM): 1.03
relative viability ([2]; first compound 0.1265 µM): 1.02
relative viability ([2]; first compound 0.4 µM): 1.03
relative viability ([2]; first compound 1.265 µM): 0.958
relative viability ([2]; first compound 4 µM): 0.944
relative viability ([3]; first compound 0.04 µM): 0.427
relative viability ([3]; first compound 0.1265 µM): 0.478
relative viability ([3]; first compound 0.4 µM): 0.437
relative viability ([3]; first compound 1.265 µM): 0.152
relative viability ([3]; first compound 4 µM): 0.158
relative viability ([4]; first compound 0.04 µM): 0.973
relative viability ([4]; first compound 0.1265 µM): 1.07
relative viability ([4]; first compound 0.4 µM): 0.959
relative viability ([4]; first compound 1.265 µM): 0.906
relative viability ([4]; first compound 4 µM): 0.871
